Several values for one entry are separate records, joined by “and”; a condition that tells them apart may be missing. Identical values can stand only once.
Assays:
Type in all cases: cell-based
[1] = test system: AHAS; test: in vivo AHAS assay, maize leaf discs with external supplement
Experimental: (§1) The procedure for the preparation of an in vivo AHAS assay is described below:
(§2) For the experiments, plants are grown from seed in soil in a greenhouse. Most experiments used wild type and imidazolinone resistant varieties of wheat, canola, rice, sunflower, and maize.
(§3) For the assay, a a microtiter plate is set up with 100 μl of one of the following solutions in each well: • a. […] Plant., 15 473-497 (1962)); 500 μM CPCA (cyclopropyldicarboxylic acid); • b. Solution B: Solution A+alanine (or other supplements); • c. Solution C: Solution A+a pyruvate salt (or other supplements).
(§4) Plant material is excised from the newest emerging, rapidly growing leaf or stem from the test plant and placed in one of the microtiter plates. Usually, 5 mm leaf discs are cut from the newest emerging leaf. At least 2 discs per plant are cut. One disc is put in a well with Solution A and the other disc in a well with one of the other Solutions B or C (what solution are you using for background?).
(§5) After all wells in the microtiter plate contain plant material, the plate is covered with the microtiter plate cover and the plate with material is placed in a chamber with continuous fluorescent lights for 12 to 16 hours. The incubation is stopped by placing the plate in −20° C. freezer. After tissue and solutions freeze, the plate is thawed at room temperature and 25 μL of 5% sulfuric acid are added to each well. After incubation at 60° C. for 15 minutes, 175 μL of a freshly prepared mixture of α-naphthol (2.5%) and creatine (0.25%) in 2 N NaOH are added to each well and the plate is incubated at 60° C. for 15 minutes.
(§6) 200 μL from each well are transferred to a new plate and OD530 on microtiter plate is readed by a spectrophotometer.

[2] = test system: AHAS; test: in vivo AHAS assay, wheat leaf discs with external supplement; details: 14 hours
Experimental: as §1, §2
(§7) For the assay, a a microtiter plate is set up with 100 μl of one of the following solutions in each well: • a. Solution A: 10 mM phosphate buffer, pH 6; 10% Murashige and Skoog basal mineral salts (according to Murashige, T. and Skoog, F., Physiol. Plant., 15 473-497 (1962)); 500 μM CPCA (cyclopropyldicarboxylic acid); • b. Solution B: Solution A+alanine (or other supplements); • c. Solution C: Solution A+a pyruvate salt (or other supplements).
as §4, with “background?). […]” for “background?).”
as §6

[3] = test system: AHAS; test: in vivo AHAS assay, canola leaf discs with external supplement
[4] = test system: AHAS; test: in vivo AHAS assay, sunflower leaf discs with external supplement; details: 14 hours
Experimental: as §1, §2, §3, §4, §5, §6

[5] = test system: AHAS; test: in vivo AHAS assay, canola leaf discs with external supplement; details: for % of No Alaninor Pyruvate: Pyruvate 0 mM
Experimental: as §1, §2, §7, §4, §5, §6

[6] = test system: AHAS; test: in vivo AHAS assay, rice leaf discs with external supplement
Experimental: as §1, §2, §3, §4, §5, §6

[7] = alanine 1.000 % vs 0.000 %, 14 hours
[8] = alanine 1.000 %, 14 hours, 500 μM CPCA
[9] = canola, Alanine (100 mM), replicates 1-3, 14 hours

## C[C@H](N)C(=O)O [Alanine, L-alanine]
[1]; [7]
  Ratio (Ala/No Ala): 1.7
[1]; [8]
  OD 530: 0.203
[1]; pH 4, 14 hours
  Ratio (Ala/No Ala): 1.89
[1]; pH 4, alanine 1 %, 14 hours
  in vivo AHAS activity, Alanine (%) 1: 0.909
[1]; pH 5, 14 hours
  Ratio (Ala/No Ala): 3.50
[1]; pH 5, alanine 1 %, 14 hours
  in vivo AHAS activity, Alanine (%) 1: 0.847
[1]; pH 6, 14 hours
  Ratio (Ala/No Ala): 5.71
[1]; pH 6, alanine 1 %, 14 hours
  in vivo AHAS activity, Alanine (%) 1: 1.033
[1]; pH 7, 14 hours
  Ratio (Ala/No Ala): 4.32
[1]; pH 7, alanine 1 %, 14 hours
  in vivo AHAS activity, Alanine (%) 1: 1.128
[2]; alanine 1.000 % vs 0.000 %
  Ratio (Ala/No Ala): 2.1
[2]; alanine 1.000 %, 500 μM CPCA
  OD 530: 0.832
[3]; pH 4, 14 hours
  Ratio (Ala/No Ala): 2.78
[3]; pH 7, alanine 1 %, 14 hours
  in vivo AHAS activity, Alanine (%) 1: 2.299
[4]; Sunflower, alanine 1.000 % vs 0.000 %
  Ratio (Ala/No Ala): 3.8
[4]; Sunflower, alanine 1.000 %, 500 μM CPCA
  OD 530: 1.857
[4]; Sunflower, pH 4
  Ratio (Ala/No Ala): 4.67
  in vivo AHAS activity, Alanine (%) 1: 1.682
[4]; Sunflower, pH 5
  Ratio (Ala/No Ala): 3.62
  in vivo AHAS activity, Alanine (%) 1: 0.745
[4]; Sunflower, pH 6
  Ratio (Ala/No Ala): 5.20
  in vivo AHAS activity, Alanine (%) 1: 0.843
[4]; Sunflower, pH 7
  Ratio (Ala/No Ala): 4.10
  in vivo AHAS activity, Alanine (%) 1: 0.48
[4]; sunflower, 1% Alanine, disc size 0.25 cm^2, 7 discs
  OD 530: 1.861
[4]; sunflower, 1% Alanine, disc size 0.56 cm^2, 3 discs
  OD 530: 0.695
[4]; sunflower, 1% Alanine, disc size 0.82 cm^2, 2 discs
  OD 530: 0.646
[4]; sunflower, 1% Alanine, disc size 1.76 cm^2, 1 disc
  OD 530: 0.447
[5]; Canola, alanine 1.000 % vs 0.000 %, 14 hours
  Ratio (Ala/No Ala): 5.4
[5]; Canola, alanine 1.000 %, 14 hours, 500 μM CPCA
  OD 530: 2.838
[5]; Canola, pH 4, alanine 1 %, 14 hours
  in vivo AHAS activity, Alanine (%) 1: 2.271
[5]; Canola, pH 5, 14 hours
  Ratio (Ala/No Ala): 2.94
[5]; Canola, pH 5, alanine 1 %, 14 hours
  in vivo AHAS activity, Alanine (%) 1: 2.383
[5]; Canola, pH 6, 14 hours
  Ratio (Ala/No Ala): 3.12
[5]; Canola, pH 6, alanine 1 %, 14 hours
  in vivo AHAS activity, Alanine (%) 1: 2.036
[5]; Canola, pH 7, 14 hours
  Ratio (Ala/No Ala): 2.38
[5]; canola 45A71, alanine 0.063 % compared with no alanine
  Increased Activity (%): 150%
[5]; canola 45A71, alanine 0.063 %, pH 6, 14 hours
  OD 530: 0.785
[5]; canola 45A71, alanine 0.125 % compared with no alanine
  Increased Activity (%): 182%
[5]; canola 45A71, alanine 0.125 %, pH 6, 14 hours
  OD 530: 0.955
[5]; canola 45A71, alanine 0.25 % compared with no alanine
  Increased Activity (%): 181%
[5]; canola 45A71, alanine 0.25 %, pH 6, 14 hours
  OD 530: 0.946
[5]; canola 45A71, alanine 0.5 % compared with no alanine
  Increased Activity (%): 198%
[5]; canola 45A71, alanine 0.5 %, pH 6, 14 hours
  OD 530: 1.038
[5]; canola 45A71, alanine 1 % compared with no alanine
  Increased Activity (%): 262%
[5]; canola 45A71, alanine 1 %, pH 6, 14 hours
  OD 530: 1.373
[5]; canola 45A71, alanine 2 % compared with no alanine
  Increased Activity (%): 290%
[5]; canola 45A71, alanine 2 %, pH 6, 14 hours
  OD 530: 1.518
[5]; canola 45A71, alanine 4 % compared with no alanine
  Increased Activity (%): 190%
[5]; canola 45A71, alanine 4 %, pH 6, 14 hours
  OD 530: 0.997
[5]; canola Westar, alanine 0.063 % compared with no alanine
  Increased Activity (%): 195%
[5]; canola Westar, alanine 0.063 %, pH 6, 14 hours
  OD 530: 0.978
[5]; canola Westar, alanine 0.125 % compared with no alanine
  Increased Activity (%): 177%
[5]; canola Westar, alanine 0.125 %, pH 6, 14 hours
  OD 530: 0.885
[5]; canola Westar, alanine 0.25 % compared with no alanine
  Increased Activity (%): 239%
[5]; canola Westar, alanine 0.25 %, pH 6, 14 hours
  OD 530: 1.197
[5]; canola Westar, alanine 0.5 % compared with no alanine
  Increased Activity (%): 229%
[5]; canola Westar, alanine 0.5 %, pH 6, 14 hours
  OD 530: 1.149
[5]; canola Westar, alanine 1 % compared with no alanine
  Increased Activity (%): 396%
[5]; canola Westar, alanine 1 %, pH 6, 14 hours
  OD 530: 1.983
[5]; canola Westar, alanine 2 % compared with no alanine
  Increased Activity (%): 250%
[5]; canola Westar, alanine 2 %, pH 6, 14 hours
  OD 530: 1.25
[5]; canola Westar, alanine 4 % compared with no alanine
  Increased Activity (%): 201%
[5]; canola Westar, alanine 4 %, pH 6, 14 hours
  OD 530: 1.009
[5]; canola, Alanine 0.5 %, 14 hours
  % of No Alaninor Pyruvate: 144%
[5]; canola, Alanine 1 %, 14 hours
  % of No Alaninor Pyruvate: 174%
[5]; [9]
  % of 0/0: 129% and 104% and 100%
  OD 530, Avg. of the treated discs: 1.538 and 1.574 and 1.298
[5]; canola, Alanine (100 mM), single treated discs, replicates 1-3, 14 hours
  OD 530, Treated: 1.529 and 1.487 and 1.335 and 1.760 and 1.691 and 1.551 and 1.498 and 1.571 and 1.007
[6]; [7]
  Ratio (Ala/No Ala): 7.0
[6]; [8]
  OD 530: 1.257
[6]; pH 4, 14 hours
  Ratio (Ala/No Ala): 2.83
[6]; pH 4, alanine 1 %, 14 hours
  in vivo AHAS activity, Alanine (%) 1: 0.903
[6]; pH 5, 14 hours
  Ratio (Ala/No Ala): 3.57
[6]; pH 5, alanine 1 %, 14 hours
  in vivo AHAS activity, Alanine (%) 1: 0.731
[6]; pH 6, 14 hours
  Ratio (Ala/No Ala): 3.65
[6]; pH 6, alanine 1 %, 14 hours
  in vivo AHAS activity, Alanine (%) 1: 0.639
[6]; pH 7, 14 hours
  Ratio (Ala/No Ala): 3.31
[6]; pH 7, alanine 1 %, 14 hours
  in vivo AHAS activity, Alanine (%) 1: 0.58
